According to US11331364B2, “Use for JNK inhibitor molecules for treatment of various diseases” (Xigen Inflammation Ltd., priority 2014, dated 2022):
Where two headings read alike, the source gives them in different places. Square brackets hold non-standard residues; d marks the D form. Peptide text beside a SMILES is read from it.

Legend:
[1] = target: T1, hJNK1 (Homo sapiens, UniProt P45983); assay: hJNK1 | IC50
T1 construct: His; purchased Upstate 14-327
Excerpt: (§1) Table printed on a drawing sheet, Fig. 4
Head of the field: hJNK1 | IC50
(§2) The patent's description of the figure: FIG. 4: Table illustrating the inhibitory efficacy of several JNK inhibitors according to the present invention, which are fusion proteins of a JNK inhibitory (poly-)peptide sequence and a transporter sequence. Given are the IC50 values in the nM range, the respective standard error of the mean (SEM) and the number of experiments performed (n).
(§3) First copying reader's note: The sheet prints no unit for IC50 (the description says nM range); decimal commas are used, except for three IC50 cells printed with a point (3820.81, 5340.33, 8130.86).
Where the first naming reader finds the target: head: hJNK1 | IC50

[2] = target: hJNK2 (Homo sapiens, UniProt P45984); assay: hJNK2 | IC50
Sequence of hJNK2 (P45984 whole entry, looked up): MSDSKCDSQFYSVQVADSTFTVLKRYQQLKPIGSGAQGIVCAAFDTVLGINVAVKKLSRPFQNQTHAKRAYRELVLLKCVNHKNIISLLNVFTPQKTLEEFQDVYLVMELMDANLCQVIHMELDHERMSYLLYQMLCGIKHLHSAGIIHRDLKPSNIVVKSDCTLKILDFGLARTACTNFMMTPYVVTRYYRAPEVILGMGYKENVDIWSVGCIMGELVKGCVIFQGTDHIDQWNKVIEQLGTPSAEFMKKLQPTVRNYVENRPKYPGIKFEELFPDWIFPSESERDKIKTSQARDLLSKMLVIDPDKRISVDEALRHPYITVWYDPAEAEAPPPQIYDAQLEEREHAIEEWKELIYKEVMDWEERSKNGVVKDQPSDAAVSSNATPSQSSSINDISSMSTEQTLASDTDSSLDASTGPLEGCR
Excerpt: as §1
Head of the field: hJNK2 | IC50
as §2, §3
Where the first naming reader finds the target: head: hJNK2 | IC50

[3] = target: hJNK3 (Homo sapiens, UniProt P53779); assay: hJNK3 | IC50
Sequence of hJNK3 (P53779 whole entry, looked up): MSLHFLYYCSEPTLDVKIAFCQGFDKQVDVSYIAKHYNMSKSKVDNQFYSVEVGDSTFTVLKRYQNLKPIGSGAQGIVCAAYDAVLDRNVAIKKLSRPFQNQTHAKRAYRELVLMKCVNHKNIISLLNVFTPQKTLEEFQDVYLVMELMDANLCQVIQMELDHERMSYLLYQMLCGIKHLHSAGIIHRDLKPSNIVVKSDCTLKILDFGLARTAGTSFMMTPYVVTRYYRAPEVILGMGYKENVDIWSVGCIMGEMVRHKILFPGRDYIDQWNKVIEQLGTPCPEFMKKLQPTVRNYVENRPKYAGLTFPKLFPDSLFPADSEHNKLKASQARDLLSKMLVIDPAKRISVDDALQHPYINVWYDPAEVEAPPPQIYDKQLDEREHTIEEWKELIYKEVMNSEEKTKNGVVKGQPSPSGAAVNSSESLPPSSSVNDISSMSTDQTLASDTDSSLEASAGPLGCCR
Excerpt: as §1
Head of the field: hJNK3 | IC50
as §2, §3
Where the first naming reader finds the target: head: hJNK3 | IC50

T1 sequence (P45983 whole entry, looked up): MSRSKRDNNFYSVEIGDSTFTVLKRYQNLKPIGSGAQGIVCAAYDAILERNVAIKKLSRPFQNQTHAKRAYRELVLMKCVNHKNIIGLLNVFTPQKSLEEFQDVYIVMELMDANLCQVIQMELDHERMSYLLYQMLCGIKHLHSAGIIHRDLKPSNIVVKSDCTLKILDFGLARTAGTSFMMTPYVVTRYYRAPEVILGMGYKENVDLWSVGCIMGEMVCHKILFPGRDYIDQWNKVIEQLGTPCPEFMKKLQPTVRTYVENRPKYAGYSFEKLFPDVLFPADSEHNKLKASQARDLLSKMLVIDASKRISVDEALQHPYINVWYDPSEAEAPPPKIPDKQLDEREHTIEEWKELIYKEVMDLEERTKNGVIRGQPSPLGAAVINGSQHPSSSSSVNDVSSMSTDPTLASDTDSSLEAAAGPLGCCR

SMILES	IC50 ([1]; read-out: hJNK1 | IC50) [nM]	IC50 ([2]; read-out: hJNK2 | IC50) [nM]	IC50 ([3]; read-out: hJNK3 | IC50) [nM]	IC50 [1] [nM]	IC50 [2] [nM]	IC50 [3] [nM]
CC(C)C[C@H](NC(=O)[C@H](CC(=O)O)NC(=O)[C@@H](NC(=O)[C@@H]1CCCN1C(=O)[C@H](CCCNC(=N)N)NC(=O)[C@@H](CCCNC(=N)N)NC(=O)[C@H](CCCNC(=N)N)NC(=O)[C@H](CCC(N)=O)NC(=O)[C@@H](CCCNC(=N)N)NC(=O)[C@H](CCCNC(=N)N)NC(=O)[C@H](CCCCN)NC(=O)[C@H](CCCCN)NC(=O)[C@H](N)CCCNC(=N)N)[C@@H](C)O)C(=O)N[C@H](CCCNC(=N)N)C(=O)N[C@@H](CC(C)C)C(=O)N[C@H](Cc1c[nH]c2ccccc12)C(N)=O [SEQ ID NO: 181, rKKRrQRrRPTDLrLw] (H-[dR]KKR[dR]QR[dR]RPTDL[dR]L[dW]-NH2)	294	160	47.6	–	–	–
CC(C)C[C@H](NC(=O)[C@H](CC(N)=O)NC(=O)[C@H](CC(C)C)NC(=O)[C@@H](NC(=O)[C@@H](C)NC(=O)[C@@H]1CCCN1C(=O)[C@H](CCCNC(=N)N)NC(=O)[C@@H](CCCNC(=N)N)NC(=O)[C@H](CCCNC(=N)N)NC(=O)[C@H](CCCNC(=N)N)NC(=O)[C@H](CCC(N)=O)NC(=O)[C@@H](CCCNC(=N)N)NC(=O)[C@H](CCCNC(=N)N)NC(=O)[C@H](CCCCN)NC(=O)[C@H](CCCCN)NC(=O)[C@H](N)CCCNC(=N)N)[C@@H](C)O)C(=O)N[C@H](Cc1ccccc1)C(N)=O [SEQ ID NO: 182, rKKRrQRRrRPaTLNLf] (H-[dR]KKR[dR]QRR[dR]RP[dA]TLNL[dF]-NH2)	1680	168	59.4	–	–	–
CC(C)C[C@H](NC(=O)[C@H](CC(N)=O)NC(=O)[C@H](CC(C)C)NC(=O)[C@@H](NC(=O)[C@@H](C)NC(=O)[C@@H]1CCCN1C(=O)[C@H](CCCNC(=N)N)NC(=O)[C@@H](CCCNC(=N)N)NC(=O)[C@H](CCCNC(=N)N)NC(=O)[C@H](CCC(N)=O)NC(=O)[C@@H](CCCNC(=N)N)NC(=O)[C@H](CCCNC(=N)N)NC(=O)[C@H](CCCCN)NC(=O)[C@H](CCCCN)NC(=O)[C@H](N)CCCNC(=N)N)[C@@H](C)O)C(=O)N[C@H](Cc1ccccc1)C(N)=O [SEQ ID NO: 183, rKKRrQRrRPaTLNLf] (H-[dR]KKR[dR]QR[dR]RP[dA]TLNL[dF]-NH2)	2590	427	199	–	–	–
CC(C)C[C@H](NC(=O)[C@H](CC(N)=O)NC(=O)[C@H](CC(C)C)NC(=O)[C@@H](NC(=O)[C@@H](C)NC(=O)[C@@H]1CCCN1C(=O)[C@H](CCCNC(=N)N)NC(=O)[C@H](CCCCN)NC(=O)[C@@H](CCCNC(=N)N)NC(=O)[C@H](CCCNC(=N)N)NC(=O)[C@H](CCC(N)=O)NC(=O)[C@@H](CCCNC(=N)N)NC(=O)[C@H](CCCNC(=N)N)NC(=O)[C@H](CCCCN)NC(=O)[C@H](CCCCN)NC(=O)[C@H](N)CCCNC(=N)N)[C@@H](C)O)C(=O)N[C@H](Cc1ccccc1)C(N)=O [SEQ ID NO: 184, rKKRrQRrKRPaTLNLf] (H-[dR]KKR[dR]QR[dR]KRP[dA]TLNL[dF]-NH2)	2430	206	129	–	–	–
CC(C)C[C@H](NC(=O)[C@H](C)NC(=O)[C@H](CCCCN)NC(=O)[C@H](CCCNC(=N)N)NC(=O)[C@H](CCCCN)NC(=O)CNC(=O)[C@@H](CCCNC(=N)N)NC(=O)[C@H](CCCNC(=N)N)NC(=O)[C@H](CCCNC(=N)N)NC(=O)[C@H](CCC(N)=O)NC(=O)[C@@H](CCCNC(=N)N)NC(=O)[C@H](CCCNC(=N)N)NC(=O)[C@H](CCCCN)NC(=O)[C@H](CCCCN)NC(=O)[C@H](N)CCCNC(=N)N)C(=O)N[C@H](CCCNC(=N)N)C(=O)N[C@@H](CC(C)C)C(=O)N[C@H](Cc1ccccc1)C(N)=O [SEQ ID NO: 189, rKKRrQRRrGKRKALrLf] (H-[dR]KKR[dR]QRR[dR]GKRKAL[dR]L[dF]-NH2)	–	–	–	22300	176	128
CC(C)C[C@H](NC(=O)[C@H](CC(N)=O)NC(=O)[C@H](CC(C)C)NC(=O)[C@@H](NC(=O)[C@@H](NC(=O)[C@@H]1CCCN1C(=O)[C@H](CCCNC(=N)N)NC(=O)[C@H](CCCCN)NC(=O)[C@@H]1CCCN1C(=O)[C@@H]1CCCN1C(=O)[C@H](CCCNC(=N)N)NC(=O)[C@H](CCCNC(=N)N)NC(=O)[C@H](CCCNC(=N)N)NC(=O)[C@H](CCC(N)=O)NC(=O)[C@H](CCCNC(=N)N)NC(=O)[C@H](CCCNC(=N)N)NC(=O)[C@H](CCCCN)NC(=O)[C@H](CCCCN)NC(=O)[C@H](CCCNC(=N)N)NC(=O)CN)[C@@H](C)O)[C@@H](C)O)C(=O)N[C@@H](Cc1ccccc1)C(=O)N1CCC[C@H]1C(=O)N[C@@H](CCC(N)=O)C(=O)N[C@H](C(=O)N1CCC[C@H]1C(=O)N[C@@H](CCCNC(=N)N)C(=O)N[C@@H](CO)C(=O)N[C@@H](CCC(N)=O)C(=O)N[C@@H](CC(=O)O)C(N)=O)C(C)C [SEQ ID NO: 194] (H-GRKKRRQRRRPPKRPTTLNLFPQVPRSQD-NH2)	–	–	–	14	12.7	2.59

Now from value to compound, other results behind:

IC50 ([1]; read-out: hJNK1 | IC50) [nM]	IC50 ([2]; read-out: hJNK2 | IC50) [nM]	IC50 ([3]; read-out: hJNK3 | IC50) [nM]	SMILES	IC50 [1] [nM]	IC50 [2] [nM]	IC50 [3] [nM]
766	72.1	35.5	CC(C)C[C@H](NC(=O)[C@H](CC(N)=O)NC(=O)[C@H](CC(C)C)NC(=O)[C@@H](NC(=O)[C@@H](CO)NC(=O)[C@@H]1CCCN1C(=O)[C@H](CCCNC(=N)N)NC(=O)[C@@H](CCCCN)NC(=O)[C@@H]1CCCN1C(=O)[C@H](CCCNC(=N)N)NC(=O)[C@@H](CCCNC(=N)N)NC(=O)[C@H](CCCNC(=N)N)NC(=O)[C@H](CCCNC(=N)N)NC(=O)[C@H](CCC(N)=O)NC(=O)[C@@H](CCCNC(=N)N)NC(=O)[C@H](CCCNC(=N)N)NC(=O)[C@H](CCCCN)NC(=O)[C@H](CCCCN)NC(=O)[C@H](N)CCCNC(=N)N)[C@@H](C)O)C(=O)N[C@H](Cc1ccccc1)C(N)=O [SEQ ID NO: 185, rKKRrQRRrRPkRPsTLNLf] (H-[dR]KKR[dR]QRR[dR]RP[dK]RP[dS]TLNL[dF]-NH2)	–	–	–
1020	52.6	44.2	CC(C)C[C@H](NC(=O)[C@H](CC(N)=O)NC(=O)[C@H](CC(C)C)NC(=O)[C@@H](NC(=O)[C@@H](CCC(N)=O)NC(=O)[C@@H]1CCCN1C(=O)[C@H](CCCNC(=N)N)NC(=O)[C@@H](CCCCN)NC(=O)[C@@H]1CCCN1C(=O)[C@H](CCCNC(=N)N)NC(=O)[C@@H](CCCNC(=N)N)NC(=O)[C@H](CCCNC(=N)N)NC(=O)[C@H](CCCNC(=N)N)NC(=O)[C@H](CCC(N)=O)NC(=O)[C@@H](CCCNC(=N)N)NC(=O)[C@H](CCCNC(=N)N)NC(=O)[C@H](CCCCN)NC(=O)[C@H](CCCCN)NC(=O)[C@H](N)CCCNC(=N)N)[C@@H](C)O)C(=O)N[C@H](Cc1ccccc1)C(N)=O [SEQ ID NO: 186, rKKRrQRRrRPkRPqTLNLf] (H-[dR]KKR[dR]QRR[dR]RP[dK]RP[dQ]TLNL[dF]-NH2)	–	–	–
594	37.9	25.4	CC(C)C[C@H](NC(=O)[C@H](CC(N)=O)NC(=O)[C@H](CC(C)C)NC(=O)[C@@H](NC(=O)[C@@H](CCCCN)NC(=O)[C@@H]1CCCN1C(=O)[C@H](CCCNC(=N)N)NC(=O)[C@@H](CCCCN)NC(=O)[C@@H]1CCCN1C(=O)[C@H](CCCNC(=N)N)NC(=O)[C@@H](CCCNC(=N)N)NC(=O)[C@H](CCCNC(=N)N)NC(=O)[C@H](CCCNC(=N)N)NC(=O)[C@H](CCC(N)=O)NC(=O)[C@@H](CCCNC(=N)N)NC(=O)[C@H](CCCNC(=N)N)NC(=O)[C@H](CCCCN)NC(=O)[C@H](CCCCN)NC(=O)[C@H](N)CCCNC(=N)N)[C@@H](C)O)C(=O)N[C@H](Cc1ccccc1)C(N)=O [SEQ ID NO: 187, rKKRrQRRrRPkRPkTLNLf] (H-[dR]KKR[dR]QRR[dR]RP[dK]RP[dK]TLNL[dF]-NH2)	–	–	–
1420	98.1	36.1	CC(C)C[C@H](NC(=O)[C@H](C)NC(=O)[C@H](CCCCN)NC(=O)[C@H](CCCNC(=N)N)NC(=O)[C@H](CCCCN)NC(=O)CNC(=O)[C@@H](CCCNC(=N)N)NC(=O)[C@H](CCCNC(=N)N)NC(=O)[C@H](CCCNC(=N)N)NC(=O)[C@H](CCC(N)=O)NC(=O)[C@@H](CCCNC(=N)N)NC(=O)[C@H](CCCNC(=N)N)NC(=O)[C@H](CCCCN)NC(=O)[C@H](CCCCN)NC(=O)[C@H](N)CCCNC(=N)N)C(=O)N[C@@H](CCCCN)C(=O)N[C@@H](CC(C)C)C(=O)N[C@H](Cc1ccccc1)C(N)=O [SEQ ID NO: 188] (H-[dR]KKR[dR]QRR[dR]GKRKALKL[dF]-NH2)	–	–	–
8970	148	159	CC(C)C[C@H](NC(=O)[C@H](C)NC(=O)[C@H](CCCCN)NC(=O)[C@H](CCCNC(=N)N)NC(=O)[C@@H](CCCNC(=N)N)NC(=O)[C@H](CCCNC(=N)N)NC(=O)[C@H](CCCNC(=N)N)NC(=O)[C@H](CCC(N)=O)NC(=O)[C@@H](CCCNC(=N)N)NC(=O)[C@H](CCCNC(=N)N)NC(=O)[C@H](CCCCN)NC(=O)[C@H](CCCCN)NC(=O)[C@H](N)CCCNC(=N)N)C(=O)N[C@H](CCCNC(=N)N)C(=O)N[C@@H](CC(C)C)C(=O)N[C@H](Cc1ccccc1)C(N)=O [SEQ ID NO: 190, rKKRrQRRrRKALrLf] (H-[dR]KKR[dR]QRR[dR]RKAL[dR]L[dF]-NH2)	–	–	–
